Measurements as given in publication PMC9017309, “Triazolopyrimidines Target Aerobic Respiration in Mycobacterium tuberculosis” (Antimicrobial Agents and Chemotherapy, 2022).
In brackets after ≈: the same amount, converted by molar mass. Where two headings read alike, the source gives them in different places.

Experiments:
[1] = system: M. tuberculosis H37Rv-LP DprE1 C387S; type: cell-based, Mycobacterium tuberculosis
[2] = system: M. tuberculosis H37Rv-LP MmpL3 F255L; type: cell-based, Mycobacterium tuberculosis
[3] = system: M. tuberculosis H37Rv-LP QcrB A396T; type: cell-based, Mycobacterium tuberculosis
[4] = system: M. tuberculosis H37Rv ATCC 26518 QcrBT313I; type: cell-based, Mycobacterium tuberculosis
[5] = system: M. tuberculosis H37Rv ATCC 26518 QcrBM342T; type: cell-based, Mycobacterium tuberculosis
[6] = system: M. tuberculosis H37Rv ATCC 27294 cydKO; test: microbe, parasite or virus in culture; type: cell-based; details: Mycobacterium tuberculosis, 120 h, read-out: MIC, H37Rv ATCC 27294 cydKO
[7] = system: M. tuberculosis resistant isolates LP-0497553-RM; test: microbe, parasite or virus in culture; type: cell-based, Mycobacterium tuberculosis; details: for MIC: Mycobacterium tuberculosis, 504 h, 24-well agar plates, 3 weeks
[8] = system: M. tuberculosis resistant isolates LP-0499227-RM; type: cell-based, Mycobacterium tuberculosis

COc1ccc(CCNc2cc(-c3ccccc3)nc3ncnn23)cc1 [TPN-0006218]
MIC, DprE1 C387S [1]: 0.94 ± 0.67 µM (≈ 0.325 µg/mL) | MIC, MmpL3 F255L [2]: 2 ± 0.99 µM (≈ 0.691 µg/mL) | MIC, QcrB A396T [3]: 6.8 ± 2.8 µM (≈ 2.35 µg/mL)

COc1ccc(CCNc2cc(-c3ccccn3)nc3ncnn23)cc1 [TPN-0006239]
MIC, DprE1 C387S [1]: 0.42 ± 0.07 µM (≈ 0.145 µg/mL) | MIC, MmpL3 F255L [2]: 0.86 ± 0.21 µM (≈ 0.298 µg/mL) | MIC, QcrB A396T [3]: 3.4 ± 0.28 µM (≈ 1.18 µg/mL) | MIC, H37Rv ATCC 26518 QcrBT313I [4]: >20 µM | MIC, H37Rv ATCC 26518 QcrBM342T [5]: 11 µM (≈ 3.81 µg/mL) | MIC [6]: 0.13 ± 0.007 µM (≈ 0.045 µg/mL) | MIC on solid medium, LP-0497553-RM1 [7]: 25 µM (≈ 8.66 µg/mL) | MIC on solid medium, LP-0497553-RM2 [7]: 25 µM (≈ 8.66 µg/mL) | MIC on solid medium, LP-0497553-RM4 [7]: 50 µM (≈ 17.3 µg/mL) | MIC on solid medium, LP-0497553-RM5 [7]: 50 µM (≈ 17.3 µg/mL) | MIC on solid medium, LP-0497553-RM10 [7]: 50 µM (≈ 17.3 µg/mL) | MIC on solid medium, LP-0497553-RM11 [7]: 50 µM (≈ 17.3 µg/mL) | MIC on solid medium, LP-0497553-RM15 [7]: 50 µM (≈ 17.3 µg/mL) | MIC ([7]; read-out: MIC on solid medium, LP-0497553-RM14): 50 µM (≈ 17.3 µg/mL) | MIC ([7]; read-out: MIC on solid medium, LP-0497553-RM23): 50 µM (≈ 17.3 µg/mL)

FC(F)(F)c1ccc(CCNc2cc(-c3ccccc3)nc3ncnn23)cc1 [TPN-0006243]
MIC, DprE1 C387S [1]: 0.95 ± 0.29 µM (≈ 0.364 µg/mL) | MIC, MmpL3 F255L [2]: 2.7 ± 2.4 µM (≈ 1.04 µg/mL) | MIC, QcrB A396T [3]: 5.7 ± 2.1 µM (≈ 2.19 µg/mL) | MIC, H37Rv ATCC 26518 QcrBT313I [4]: >20 µM | MIC, H37Rv ATCC 26518 QcrBM342T [5]: >20 µM | MIC [6]: < 0.39 µM

Cc1ccc(CCNc2cc(-c3ccccc3)nc3ncnn23)cc1 [TPN-0006245]
MIC, DprE1 C387S [1]: 0.92 ± 0.3 µM (≈ 0.303 µg/mL) | MIC, MmpL3 F255L [2]: 2 ± 0.07 µM (≈ 0.659 µg/mL) | MIC, QcrB A396T [3]: 5.6 ± 2.5 µM (≈ 1.84 µg/mL) | MIC, H37Rv ATCC 26518 QcrBT313I [4]: >20 µM | MIC, H37Rv ATCC 26518 QcrBM342T [5]: >20 µM

FC(F)(F)c1ccc(CCNc2cc(-c3ccccn3)nc3ncnn23)cc1 [TPN-0006267]
MIC, DprE1 C387S [1]: 0.66 ± 0.01 µM (≈ 0.254 µg/mL) | MIC, MmpL3 F255L [2]: 1.8 ± 0.57 µM (≈ 0.692 µg/mL) | MIC, QcrB A396T [3]: 5.9 ± 3.5 µM (≈ 2.27 µg/mL) | MIC, H37Rv ATCC 26518 QcrBT313I [4]: >20 µM | MIC, H37Rv ATCC 26518 QcrBM342T [5]: 10 µM (≈ 3.84 µg/mL) | MIC on solid medium, LP-0499227-RM1 [8]: >100 µM | MIC on solid medium, LP-0499227-RM2 [8]: >100 µM | MIC on solid medium, LP-0499227-RM3 [8]: >100 µM | MIC on solid medium, LP-0499227-RM4 [8]: 25 µM (≈ 9.61 µg/mL) | MIC on solid medium, LP-0499227-RM7 [8]: >100 µM
